In US9951035B2, “Selective matrix metalloproteinase inhibitors” (University of Notre Dame du Lac, priority 2014, dated 2018):
In brackets after ≈: the same amount, converted by molar mass.

Columns and labels:
[1] = target: MMP-9 (Homo sapiens (Human), UniProt P14780); conditions: at 50,000 nM; Gooyit et al. 2013; cited from earlier work
[2] = system: diabetic (db/db) mice; assay: Mouse diabetic wound model; type: in vivo; conditions: for wound healing versus vehicle: 0.25 mg/wound/day; for wound healing versus vehicle / wound closure: db/db mice; for wound closure: 0.25 mg/wound/day topical
Description: The excisional mouse diabetic model validated by Sullivan et al. was used (Sullivan et al., Plast. Reconstr. Surg. (2004) 113, 953-960). The procedure for inflicting the wounds (single 8 mm wound on the dorsal region) was the same as described previously (Gooyit et al., ACS Chem. Biol. (2014) 9, 505-510). Wounds were photographed and covered with a sterile 3M Tegaderm™ transparent dressing (Butler Schein Animal Health, Inc.).
Female diabetic db/db (BKS.Cg-Dock7m+/+Leprdb/J, 8-weeks old, 38±3 g, n=24) were used for this study. Wounds were inflicted as described. Treatment with the MMP-2 inhibitor (50 μL of 5.0 mg/mL in 80% propylene glycol/20% DMSO, equivalent to 0.25 mg per wound) or vehicle (50 μL of 80% propylene glycol/20% DMSO) was started one day after wound infliction and continued once a day for 14 days. Digital photographs of wounds were taken on days 0, 7, 10, and 14 while the animals were under isoflurane anesthesia. On day 14, all mice were sacrificed. The wounds were excised, embedded in optimal cutting temperature (OCT) compound, and cryosectioned for histological evaluation.
Female diabetic db/db (BKS.Cg-Dock7m+/+Leprdb/J, 8-weeks old, 38±3 g, n=24) were used for this study. Wounds were inflicted and the following day the wounds were treated topically with MMP-8 (50 μL of 20 μg/mL MMP-8 in reaction buffer) or vehicle (50 μL reaction buffer) once a day for 14 days. The reaction buffer consisted of 50 mM Tris (pH 7.5), 10 mM CaCl2, 150 mM NaCl, and 0.05% (w/v) Brij-35. Digital photographs of the wounds were taken on days 0, 7, 10, and 14 while animals were under isoflurane anesthesia. On days 7 and 14, 12 mice (n=6 per group) were sacrificed. The wounds were excised, embedded in OCT compound, and cryosectioned for histological evaluation.
Photographs were taken using the procedure described by Gooyit et al. (ACS Chem Biol. (2014) 9, 505-510) at a fixed distance above the wounds and calibrated using a ruler included in the photographic frame. Image J 1.48c software was used to calculate wound areas. The percentage of wound closure was calculated from the wound area on the specified day relative to that on day 0.
Fresh wound tissue was harvested and embedded in OCT compound. Subsequently, the tissue was cryosectioned for H&E staining (12-μm thickness) and for apoptosis assays and in-situ zymography (8-μm thickness). Re-epithelialization was assessed on a Nikon Eclipse 90i Fluorescent Microscope (Nikon Instruments Inc.) as described earlier (Tkalcevic et al., Toxicol. Pathol. (2009) 37, 183-192). Apoptosis was evaluated using Derma TACS™ Apoptosis detection kits (Trevigen, Inc.) according to the manufacturer's instructions. The protocol of in-situ zymography was adapted from known methods. Gelatinolytic activity was detected in unfixed cryostat sections using DQ-gelatin as a substrate. DQ-gelatin was prepared at a concentration of 20 μg/mL in Tris-buffered saline (TBS) buffer (50 mM TBS pH 7.6, 1 mM CaCl2). A general MMP inhibitor in 0.5 mM EDTA was prepared as a negative control. Cryostat sections were air-dried for 10 min and incubated in the substrate mixture in the presence and absence of EDTA for 1 hr at room temperature. After the incubation period, the slides were washed in PBS (three times, 5 min each), fixed with 4% paraformaldehyde in PBS for 10 min in the dark, washed again with PBS (three times, 5 min each), incubated in the dark for 5 min with 300 nM DAPI solution, and mounted with anti-quenching mounting medium. Fluorescence of FITC was detected with excitation at 460-500 nm and emission at 512-542 nm. DAPI was detected with excitation at 340-380 nm and emission at 425-∞ nm.
Data are expressed as mean±SD. Wound healing between the groups in the studies were analyzed for statistical significance using a paired Student t-test, where p<0.05 was considered statistically significant.

[3] = target: MMP-2 (Homo sapiens (Human), UniProt P08253); conditions: literature / previously reported; cited from earlier work
[4] = physchem; conditions: water, thermodynamic from solid
[5] = target: MMP-7 (Homo sapiens (Human), UniProt P09237); conditions: at 250 μM; data from Gooyit et al. 2014; cited from earlier work
[6] = system: non-diabetic wounds; assay: Healing of non-diabetic wounds; type: in vivo, mice; conditions: in words
[7] = target: ADAM10 (Homo sapiens (Human), UniProt O14672); assay: Enzyme inhibition studies, ADAM10; type: biochemical
[8] = target: ADAM9 (Homo sapiens (Human), UniProt Q13443); assay: Enzyme inhibition studies, ADAM9; type: biochemical
[9] = target: MMP-1 (Homo sapiens (Human), UniProt P03956); conditions: at 250 μM; data from Gooyit et al. 2014; cited from earlier work
[10] = system: non-diabetic wounds; conditions: rats, pigs, and humans; in words; cited from earlier work
[11] = target: MMP-14 (Homo sapiens (Human), UniProt P50281); conditions: literature; cited from earlier work

Sequence of ADAM9 (Q13443 206-697): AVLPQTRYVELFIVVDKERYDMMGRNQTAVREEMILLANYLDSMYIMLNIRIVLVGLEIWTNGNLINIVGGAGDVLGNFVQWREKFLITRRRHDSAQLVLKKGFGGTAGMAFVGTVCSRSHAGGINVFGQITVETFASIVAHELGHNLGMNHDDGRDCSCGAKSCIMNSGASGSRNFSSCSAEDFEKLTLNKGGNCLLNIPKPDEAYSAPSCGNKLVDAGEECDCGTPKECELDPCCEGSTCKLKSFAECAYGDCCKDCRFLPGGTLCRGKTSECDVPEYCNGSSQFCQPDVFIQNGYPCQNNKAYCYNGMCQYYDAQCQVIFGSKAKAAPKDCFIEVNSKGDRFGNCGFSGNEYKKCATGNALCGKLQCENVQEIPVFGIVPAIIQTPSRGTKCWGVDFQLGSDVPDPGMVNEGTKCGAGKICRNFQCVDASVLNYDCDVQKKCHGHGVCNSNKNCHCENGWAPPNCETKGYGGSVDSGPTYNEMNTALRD
Sequence of MMP-1 (P03956 98-276): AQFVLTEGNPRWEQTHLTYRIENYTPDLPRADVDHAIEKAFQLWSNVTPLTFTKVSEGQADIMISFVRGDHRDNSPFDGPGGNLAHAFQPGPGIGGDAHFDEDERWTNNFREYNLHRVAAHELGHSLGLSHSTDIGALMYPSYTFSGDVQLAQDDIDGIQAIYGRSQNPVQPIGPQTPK
Sequence of MMP-2 (P08253 110-660): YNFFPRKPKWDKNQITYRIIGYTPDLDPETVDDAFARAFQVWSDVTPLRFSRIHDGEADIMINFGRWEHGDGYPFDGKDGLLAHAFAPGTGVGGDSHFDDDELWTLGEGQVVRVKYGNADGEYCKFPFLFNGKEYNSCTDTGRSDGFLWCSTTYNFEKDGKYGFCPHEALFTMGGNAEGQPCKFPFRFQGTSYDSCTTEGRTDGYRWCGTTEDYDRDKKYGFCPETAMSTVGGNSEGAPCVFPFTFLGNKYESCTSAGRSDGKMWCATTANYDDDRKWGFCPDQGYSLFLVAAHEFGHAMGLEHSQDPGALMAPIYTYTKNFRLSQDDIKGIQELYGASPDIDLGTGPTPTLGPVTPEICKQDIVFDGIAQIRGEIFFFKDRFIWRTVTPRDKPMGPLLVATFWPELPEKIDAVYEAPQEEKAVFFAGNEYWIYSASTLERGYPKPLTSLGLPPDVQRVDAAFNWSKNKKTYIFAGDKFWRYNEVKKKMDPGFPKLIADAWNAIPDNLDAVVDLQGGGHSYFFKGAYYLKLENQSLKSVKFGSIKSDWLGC
Sequence of MMP-7 (P09237 95-267): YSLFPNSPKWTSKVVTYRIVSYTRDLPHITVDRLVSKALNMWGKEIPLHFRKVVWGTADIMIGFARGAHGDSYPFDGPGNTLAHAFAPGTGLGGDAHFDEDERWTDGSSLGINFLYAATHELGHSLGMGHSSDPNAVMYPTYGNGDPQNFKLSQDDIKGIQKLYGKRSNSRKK
Sequence of MMP-9 (P14780 107-444): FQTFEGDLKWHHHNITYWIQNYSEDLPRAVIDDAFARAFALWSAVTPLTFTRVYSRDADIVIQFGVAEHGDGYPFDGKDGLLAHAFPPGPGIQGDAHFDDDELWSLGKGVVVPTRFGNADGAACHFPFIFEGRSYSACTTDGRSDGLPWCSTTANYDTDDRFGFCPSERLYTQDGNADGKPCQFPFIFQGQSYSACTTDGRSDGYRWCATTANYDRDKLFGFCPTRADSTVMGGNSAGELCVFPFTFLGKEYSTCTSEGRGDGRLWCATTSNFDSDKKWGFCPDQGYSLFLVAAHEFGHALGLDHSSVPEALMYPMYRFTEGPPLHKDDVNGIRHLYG
Sequence of ADAM10 (O14672 214-672): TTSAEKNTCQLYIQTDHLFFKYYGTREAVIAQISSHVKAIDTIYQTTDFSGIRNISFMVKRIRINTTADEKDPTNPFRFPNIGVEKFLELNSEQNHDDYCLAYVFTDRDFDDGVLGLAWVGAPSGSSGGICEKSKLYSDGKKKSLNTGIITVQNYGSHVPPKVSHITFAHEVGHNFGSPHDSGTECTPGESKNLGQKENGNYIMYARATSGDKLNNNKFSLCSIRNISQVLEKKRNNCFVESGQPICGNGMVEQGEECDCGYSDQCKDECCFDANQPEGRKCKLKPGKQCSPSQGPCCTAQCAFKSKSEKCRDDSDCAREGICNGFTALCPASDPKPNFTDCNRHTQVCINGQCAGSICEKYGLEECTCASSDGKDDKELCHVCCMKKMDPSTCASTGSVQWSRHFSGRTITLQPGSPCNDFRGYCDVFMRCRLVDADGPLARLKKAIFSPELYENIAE

CCNC(=O)Nc1ccc(Oc2ccc(S(=O)(=O)CC3CS3)cc2)cc1 (centres unmarked) [Compound 1x]
MMP-9 inhibition [1]: 28% | wound healing versus vehicle ([2]; in words): No significant differences | wound healing versus vehicle ([2]; in words, listed as MMP-2 inhibitor): No differences were observed between the groups | re-epithelialization ([2]; H&E staining, day 14, in words): Partial re-epithelialization | wound closure ([2]; day 7): 23±16% | wound closure ([2]; day 10): 45±11% | wound closure ([2]; day 14): 70±15% | residence time bound to MMP-2 [3]: 24.5 min

Nc1ccc(Oc2ccc(S(=O)(=O)CC3CS3)cc2)cc1 (centres unmarked) [Compound 2]
solubility [4]: 4900 µg/mL (≈ 15.2 mM) | Inhibition [5]: 16%^i, j | healing of diabetic wounds ([2]; selective MMP-9 inhibition, in words): healed more rapidly | effect on non-diabetic wounds [6]: does not show any effect | inhibition at 20 µM [7]: 21% | inhibition at 20 µM [8]: 30% | Inhibition [9]: 10%^i, j

CNC(=O)[C@H](Cc1c[nH]c2ccccc12)NC(=O)[C@@H](CC(=O)NO)CC(C)C [ilomastat]
wound closure and epithelialization in non-diabetic wounds [10]: delayed wound closure and diminished epithelialization

B1: TIMP-4: tissue inhibitor of metalloproteinase, protein inhibitor of MMPs (protein, UniProt Q99727 30-224, looked up)
Metalloproteinase inhibitor 4: CSCAPAHPQQHICHSALVIRAKISSEKVVPASADPADTEKMLRYEIKQIKMFKGFEKVKDVQYIYTPFDSSLCGVKLEANSQKQYLLTGQVLSDGKVFIHLCNYIEPWEDLSLVQRESLNHHYHLNCGCQITTCYTVPCTISAPNECLWTDWLLERKLYGYQAQHYVCMKHVDGTCSWYRGHLPLRKEFVDIVQP
residence time bound to MMP-14 [11]: 39 min
